{"source": "patent US20110039700A1", "about": "“Method for Improved Utilization of the Production Potential of Transgenic Plants Introduction” (priority 2008, published 2011)", "assay_type_in_all_cases": "in vivo", "key": {"[1]": {"tested_on": "Spodoptera exigua", "assay": "Foliar application Spodoptera exigua/maize", "settings": "96 h, read-out: Mortality in % after 4^d", "description": "Pots containing in each case 5 transgenic maize plants with Lepidoptera, Coleoptera and/or herbicide resistance are treated against the beet army worm (Spodoptera exigua) in 2 replications.\n(§1) After the desired period of time, the mortality in % is determined. Here 100% means that all caterpillars have been killed; 0% means that none of the caterpillars have been killed."}, "[2]": {"tested_on": "Spodoptera frugiperda", "assay": "Drench application Spodoptera frugiperda/maize", "settings": "soil, 96 h, read-out: Mortality in % after 4^d", "description": "Pots containing in each case 5 transgenic maize plants with Lepidoptera, Coleoptera and/or herbicide resistance are treated by drenching against the fall army worm (Spodoptera frugiperda) in 2 replications.\nas §1"}, "[3]": {"tested_on": "Spodoptera frugiperda", "assay": "Foliar application Spodoptera frugiperda/cotton", "settings": "72 h, read-out: Mortality in % after 3^d", "description": "Individually potted transgenic cotton plants with Lepidoptera resistance and herbicide resistance (Line DP444 BG/RR) are treated with the desired product against the fall army worm (Spodoptera frugiperda).\nas §1"}}}
{"smiles": "Cc1cc(C)c(C2=C(OC(=O)CC(C)(C)C)C3(CCCC3)OC2=O)c(C)c1", "note": "[spiromesifen]", "values": [{"measurement": "mortality at 100 ppm", "setting": "[1]", "value": 0, "unit": "%"}, {"measurement": "mortality at 100 ppm", "setting": "[2]", "value": 10, "unit": "%"}]}
{"smiles": "CCC(C)(C)C(=O)OC1=C(c2ccc(Cl)cc2Cl)C(=O)OC12CCCCC2", "note": "[spirodiclofen]", "values": [{"measurement": "mortality at 500 ppm", "setting": "[3]", "value": 0, "unit": "%"}]}
